Measurements as given in ChEMBL document CHEMBL3885881, “DrugMatrix”.

Species on record: Rattus norvegicus
Assay: DrugMatrix - Regimen: Daily Repeat
Type: toxicity, organism-based, Sprague-Dawley
Parameters: regimen Daily Repeat, gender Male, age 6-8 weeks
Conditions: in vivo, po, route oral GAVAGE, […]; for ABSOLUTE BASOPHIL / ABSOLUTE EOSINOPHIL / ABSOLUTE LYMPHOCYTE / ABSOLUTE MONOCYTE / ABSOLUTE SEGMENTED NEUTROPHIL / BASOPHIL / EOSINOPHIL / ERYTHROCYTE COUNT / HEMATOCRIT / HEMOGLOBIN / LEUKOCYTE COUNT / LYMPHOCYTE / MEAN CORPUSCULAR HEMOGLOBIN / MEAN CORPUSCULAR HEMOGLOBIN CONCENTRATION / MEAN CORPUSCULAR VOLUME / MONOCYTE / NEUTROPHIL / NUCLEATED RED BLOOD CELLS / PLATELET COUNT: tissue Blood; for ALANINE AMINOTRANSFERASE / ALBUMIN / ALKALINE PHOSPHATASE / ASPARTATE AMINOTRANSFERASE / BLOOD UREA NITROGEN / CARBON DIOXIDE / CHLORIDE / CHOLESTEROL / CREATINE PHOSPHOKINASE / CREATININE / GLUCOSE / LACTATE DEHYDROGENASE / LIPASE / PHOSPHORUS / POTASSIUM / SODIUM / TOTAL BILIRUBIN / TOTAL PROTEIN / URIC ACID: tissue Plasma
[1] = 29 mg/kg, 120 h, dose level Low, time 5 day
[2] = 450 mg/kg, 72 h, dose level High, time 3 day
[3] = 450 mg/kg, 120 h, dose level High, time 5 day

## C[C@@H]1CN(c2c(F)c(N)c3c(=O)c(C(=O)O)cn(C4CC4)c3c2F)C[C@H](C)N1 [SPARFLOXACIN]
[1]
  ABSOLUTE BASOPHIL: 0 CELLS/uL
  ABSOLUTE EOSINOPHIL: 69.33 CELLS/uL
  ABSOLUTE LYMPHOCYTE: 8350.33 CELLS/uL
  ABSOLUTE MONOCYTE: 91.33 CELLS/uL
  ABSOLUTE SEGMENTED NEUTROPHIL: 455.67 CELLS/uL
  BASOPHIL: 0%
  EOSINOPHIL: 0.67%
  ERYTHROCYTE COUNT: 5.79 x10E6/uL
  HEMATOCRIT: 35.13%
  HEMOGLOBIN: 13.97 G/DL
  LEUKOCYTE COUNT: 8.97 x10E3/uL
  LYMPHOCYTE: 93%
  MEAN CORPUSCULAR HEMOGLOBIN: 24.13 pg
  MEAN CORPUSCULAR HEMOGLOBIN CONCENTRATION: 39.73 G/DL
  MEAN CORPUSCULAR VOLUME: 60.73 fL
  MONOCYTE: 1%
  NEUTROPHIL: 5.33%
  NUCLEATED RED BLOOD CELLS: 0 /100WBC
  PLATELET COUNT: 1048 x10E3/uL
  ALANINE AMINOTRANSFERASE: 62 u/L
  ALBUMIN: 4.03 G/DL
  ALKALINE PHOSPHATASE: 251.67 u/L
  ASPARTATE AMINOTRANSFERASE: 82 u/L
  BLOOD UREA NITROGEN: 13.33 mg/dL
  CARBON DIOXIDE: 33 mmol/L
  CHLORIDE: 98.33 MEQ/L
  CHOLESTEROL: 65.67 mg/dL
  CREATINE PHOSPHOKINASE: 381.67 u/L
  CREATININE: 0.18 mg/dL
  GLUCOSE: 147.33 mg/dL
  LACTATE DEHYDROGENASE: 161.33 u/L
  LIPASE: 12 u/L
  PHOSPHORUS: 10.9 mg/dL
  POTASSIUM: 6.43 MEQ/L
  SODIUM: 144.2 MEQ/L
  TOTAL BILIRUBIN: 0.13 mg/dL
  TOTAL PROTEIN: 6 G/DL
  URIC ACID: 0.77 mg/dL
[2]
  ABSOLUTE BASOPHIL: 0 CELLS/uL
  ABSOLUTE EOSINOPHIL: 0 CELLS/uL
  ABSOLUTE LYMPHOCYTE: 14211.67 CELLS/uL
  ABSOLUTE MONOCYTE: 0 CELLS/uL
  ABSOLUTE SEGMENTED NEUTROPHIL: 1355 CELLS/uL
  BASOPHIL: 0%
  EOSINOPHIL: 0%
  ERYTHROCYTE COUNT: 5.74 x10E6/uL
  HEMATOCRIT: 34.87%
  HEMOGLOBIN: 13.93 G/DL
  LEUKOCYTE COUNT: 15.57 x10E3/uL
  LYMPHOCYTE: 91.33%
  MEAN CORPUSCULAR HEMOGLOBIN: 24.3 pg
  MEAN CORPUSCULAR HEMOGLOBIN CONCENTRATION: 40 G/DL
  MEAN CORPUSCULAR VOLUME: 60.77 fL
  MONOCYTE: 0%
  NEUTROPHIL: 8.67%
  NUCLEATED RED BLOOD CELLS: 0 /100WBC
  PLATELET COUNT: 1148.33 x10E3/uL
  ALANINE AMINOTRANSFERASE: 55.33 u/L
  ALBUMIN: 3.93 G/DL
  ALKALINE PHOSPHATASE: 277.33 u/L
  ASPARTATE AMINOTRANSFERASE: 69.33 u/L
  BLOOD UREA NITROGEN: 12 mg/dL
  CARBON DIOXIDE: 31.67 mmol/L
  CHLORIDE: 101 MEQ/L
  CHOLESTEROL: 72.33 mg/dL
  CREATINE PHOSPHOKINASE: 173 u/L
  CREATININE: 0.21 mg/dL
  GLUCOSE: 159.67 mg/dL
  LACTATE DEHYDROGENASE: 146 u/L
  LIPASE: 10.67 u/L
  PHOSPHORUS: 10.6 mg/dL
  POTASSIUM: 6.2 MEQ/L
  SODIUM: 143.4 MEQ/L
  TOTAL BILIRUBIN: 0.17 mg/dL
  TOTAL PROTEIN: 5.73 G/DL
  URIC ACID: 1.3 mg/dL
[3]
  ABSOLUTE BASOPHIL: 0 CELLS/uL
  ABSOLUTE EOSINOPHIL: 0 CELLS/uL
  ABSOLUTE LYMPHOCYTE: 8740 CELLS/uL
  ABSOLUTE MONOCYTE: 96.67 CELLS/uL
  ABSOLUTE SEGMENTED NEUTROPHIL: 396.67 CELLS/uL
  BASOPHIL: 0%
  EOSINOPHIL: 0%
  ERYTHROCYTE COUNT: 5.14 x10E6/uL
  HEMATOCRIT: 33.83%
  HEMOGLOBIN: 13.17 G/DL
  LEUKOCYTE COUNT: 9.23 x10E3/uL
  LYMPHOCYTE: 94.67%
  MEAN CORPUSCULAR HEMOGLOBIN: 25.83 pg
  MEAN CORPUSCULAR HEMOGLOBIN CONCENTRATION: 38.93 G/DL
  MEAN CORPUSCULAR VOLUME: 66.27 fL
  MONOCYTE: 1%
  NEUTROPHIL: 4.33%
  NUCLEATED RED BLOOD CELLS: 0 /100WBC
  PLATELET COUNT: 1047.33 x10E3/uL
  ALANINE AMINOTRANSFERASE: 67.33 u/L
  ALBUMIN: 4.03 G/DL
  ALKALINE PHOSPHATASE: 374 u/L
  ASPARTATE AMINOTRANSFERASE: 88.67 u/L
  BLOOD UREA NITROGEN: 11 mg/dL
  CARBON DIOXIDE: 30 mmol/L
  CHLORIDE: 97.67 MEQ/L
  CHOLESTEROL: 86 mg/dL
  CREATINE PHOSPHOKINASE: 412.67 u/L
  CREATININE: 0.19 mg/dL
  GLUCOSE: 177.67 mg/dL
  LACTATE DEHYDROGENASE: 159.67 u/L
  LIPASE: 10.33 u/L
  PHOSPHORUS: 12.17 mg/dL
  POTASSIUM: 5.6 MEQ/L
  SODIUM: 141 MEQ/L
  TOTAL BILIRUBIN: 0.1 mg/dL
  TOTAL PROTEIN: 5.93 G/DL
  URIC ACID: 1 mg/dL
